Source: PubChem BioAssay AID1963972 (Molecular Pharmacology Branch, DTP, NCI, 2024)

Test system: 945468-187-T-J2-PDC spheroids viability
Assay: Anticancer human tumor 945468-187-T-J2-PDC patient-derived rectal carcinoma cell line growth inhibition [PI3K]
Conditions: spheroids with HUVEC and MSC; for IC50: curve of first compound; for viability, T/C: stronger effect = lower value
Method in brief: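 Multi-cell spheroids combine tumor cells with HUVEC and human MSCs, treated with targeted agents alone or with inavolisib, alpelisib, duvelisib or copanlisib. Concentrations fall in half-log steps from at or near clinical Cmax, or from 10 microM where Cmax is unknown; viability read-out.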

[1] = second compound 0.00316 µM, first compound 0.0316 µM
[2] = second compound 0.00316 µM, first compound 0.1 µM
[3] = second compound 0.00316 µM, first compound 0.316 µM
[4] = second compound 0.00316 µM, first compound 1 µM
[5] = second compound 0.00316 µM, first compound 3.16 µM
[6] = second compound 0.00316 µM, first compound 10 µM
[7] = second compound 0.01 µM, first compound 0.0316 µM
[8] = second compound 0.01 µM, first compound 0.1 µM
[9] = second compound 0.01 µM, first compound 0.316 µM
[10] = second compound 0.01 µM, first compound 1 µM
[11] = second compound 0.01 µM, first compound 3.16 µM
[12] = second compound 0.01 µM, first compound 10 µM
[13] = second compound 0.0316 µM, first compound 0.0316 µM
[14] = second compound 0.0316 µM, first compound 0.1 µM
[15] = second compound 0.0316 µM, first compound 0.316 µM
[16] = second compound 0.0316 µM, first compound 1 µM
[17] = second compound 0.0316 µM, first compound 3.16 µM
[18] = second compound 0.0316 µM, first compound 10 µM
[19] = second compound 0.1 µM, first compound 0.0316 µM
[20] = second compound 0.1 µM, first compound 0.1 µM
[21] = second compound 0.1 µM, first compound 0.316 µM
[22] = second compound 0.1 µM, first compound 1 µM
[23] = second compound 0.1 µM, first compound 3.16 µM
[24] = second compound 0.1 µM, first compound 10 µM
[25] = second compound 0.316 µM, first compound 0.0316 µM
[26] = second compound 0.316 µM, first compound 0.1 µM
[27] = second compound 0.316 µM, first compound 0.316 µM
[28] = second compound 0.316 µM, first compound 1 µM
[29] = second compound 0.316 µM, first compound 3.16 µM
[30] = second compound 0.316 µM, first compound 10 µM
[31] = second compound 1 µM, first compound 0.0316 µM
[32] = second compound 1 µM, first compound 0.1 µM
[33] = second compound 1 µM, first compound 0.316 µM
[34] = second compound 1 µM, first compound 1 µM
[35] = second compound 1 µM, first compound 3.16 µM
[36] = second compound 1 µM, first compound 10 µM
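Note: spheroids exposed to compounds for seven days before reading.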

## C=CC(=O)N1CCN(c2nc(=O)n(-c3c(C)ccnc3C(C)C)c3nc(-c4c(O)cccc4F)c(F)cc23)C(C)C1 (stereo not drawn) + CC(Nc1ccc2c(c1)OCCn1cc(N3C(=O)OCC3C(F)F)nc1-2)C(N)=O
Second compound 0.00316 µM
  IC50: > 10 µM
Second compound 0.01 µM
  IC50: > 10 µM
Second compound 0.0316 µM
  IC50: > 10 µM
Second compound 0.1 µM
  IC50: > 10 µM
Second compound 0.316 µM
  IC50: > 10 µM
Second compound 1 µM
  IC50: > 10 µM
[1]
  viability, T/C: 117%
[2]
  viability, T/C: 108%
[3]
  viability, T/C: 114%
[4]
  viability, T/C: 85.1%
[5]
  viability, T/C: 101%
[6]
  viability, T/C: 101%
[7]
  viability, T/C: 166%
[8]
  viability, T/C: 98%
[9]
  viability, T/C: 101%
[10]
  viability, T/C: 120%
[11]
  viability, T/C: 111%
[12]
  viability, T/C: 123%
[13]
  viability, T/C: 124%
[14]
  viability, T/C: 117%
[15]
  viability, T/C: 103%
[16]
  viability, T/C: 116%
[17]
  viability, T/C: 91.5%
[18]
  viability, T/C: 83.6%
[19]
  viability, T/C: 127%
[20]
  viability, T/C: 88.1%
[21]
  viability, T/C: 87.7%
[22]
  viability, T/C: 98.4%
[23]
  viability, T/C: 96.3%
[24]
  viability, T/C: 111%
[25]
  viability, T/C: 101%
[26]
  viability, T/C: 101%
[27]
  viability, T/C: 79.7%
[28]
  viability, T/C: 110%
[29]
  viability, T/C: 95.3%
[30]
  viability, T/C: 80.1%
[31]
  viability, T/C: 89.2%
[32]
  viability, T/C: 98.1%
[33]
  viability, T/C: 81.8%
[34]
  viability, T/C: 83.4%
[35]
  viability, T/C: 81.9%
[36]
  viability, T/C: 83.7%

## CCN1CCN(Cc2ccc(Nc3ncc(F)c(-c4cc(F)c5nc(C)n(C(C)C)c5c4)n3)nc2)CC1 + CC(Nc1ccc2c(c1)OCCn1cc(N3C(=O)OCC3C(F)F)nc1-2)C(N)=O
Second compound 0.00316 µM
  IC50: > 1 µM
Second compound 0.01 µM
  IC50: > 1 µM
Second compound 0.0316 µM
  IC50: > 1 µM
Second compound 0.1 µM
  IC50: > 1 µM
Second compound 0.316 µM
  IC50: 0.712 µM
Second compound 1 µM
  IC50: 0.332 µM
Second compound 0.00316 µM, first compound 0.00316 µM
  viability, T/C: 113%
Second compound 0.00316 µM, first compound 0.01 µM
  viability, T/C: 93.7%
[1]
  viability, T/C: 88.2%
[2]
  viability, T/C: 101%
[3]
  viability, T/C: 82.7%
[4]
  viability, T/C: 73.2%
Second compound 0.01 µM, first compound 0.00316 µM
  viability, T/C: 95.2%
Second compound 0.01 µM, first compound 0.01 µM
  viability, T/C: 96.7%
[7]
  viability, T/C: 90.9%
[8]
  viability, T/C: 102%
[9]
  viability, T/C: 143%
[10]
  viability, T/C: 71.3%
Second compound 0.0316 µM, first compound 0.00316 µM
  viability, T/C: 99%
Second compound 0.0316 µM, first compound 0.01 µM
  viability, T/C: 95.1%
[13]
  viability, T/C: 95.2%
[14]
  viability, T/C: 117%
[15]
  viability, T/C: 111%
[16]
  viability, T/C: 74.7%
Second compound 0.1 µM, first compound 0.00316 µM
  viability, T/C: 91.8%
Second compound 0.1 µM, first compound 0.01 µM
  viability, T/C: 91.3%
[19]
  viability, T/C: 94.3%
[20]
  viability, T/C: 79.3%
[21]
  viability, T/C: 94.1%
[22]
  viability, T/C: 59.1%
Second compound 0.316 µM, first compound 0.00316 µM
  viability, T/C: 78.2%
Second compound 0.316 µM, first compound 0.01 µM
  viability, T/C: 79.8%
[25]
  viability, T/C: 75.6%
[26]
  viability, T/C: 71.1%
[27]
  viability, T/C: 83.8%
[28]
  viability, T/C: 38.4%
Second compound 1 µM, first compound 0.00316 µM
  viability, T/C: 79.7%
Second compound 1 µM, first compound 0.01 µM
  viability, T/C: 67.2%
[31]
  viability, T/C: 83.4%
[32]
  viability, T/C: 82.4%
[33]
  viability, T/C: 51%
[34]
  viability, T/C: 28.2%

## Cn1ncc(Cl)c1-c1cc(C(=O)NC(CN)Cc2cccc(F)c2)sc1Cl (stereo not drawn) + CC(Nc1ccc2c(c1)OCCn1cc(N3C(=O)OCC3C(F)F)nc1-2)C(N)=O
Second compound 0.00316 µM
  IC50: > 10 µM
Second compound 0.01 µM
  IC50: > 10 µM
Second compound 0.0316 µM
  IC50: > 10 µM
Second compound 0.1 µM
  IC50: > 10 µM
Second compound 0.316 µM
  IC50: > 10 µM
Second compound 1 µM
  IC50: > 10 µM
[1]
  viability, T/C: 82%
[2]
  viability, T/C: 76.6%
[3]
  viability, T/C: 66.5%
[4]
  viability, T/C: 70%
[5]
  viability, T/C: 58.5%
[6]
  viability, T/C: 73.8%
[7]
  viability, T/C: 80.1%
[8]
  viability, T/C: 75.4%
[9]
  viability, T/C: 95.7%
[10]
  viability, T/C: 75.8%
[11]
  viability, T/C: 66.7%
[12]
  viability, T/C: 95.7%
[13]
  viability, T/C: 99.8%
[14]
  viability, T/C: 88.3%
[15]
  viability, T/C: 95.9%
[16]
  viability, T/C: 71.6%
[17]
  viability, T/C: 62.3%
[18]
  viability, T/C: 96%
[19]
  viability, T/C: 93.2%
[20]
  viability, T/C: 86.1%
[21]
  viability, T/C: 78.4%
[22]
  viability, T/C: 71.8%
[23]
  viability, T/C: 62.2%
[24]
  viability, T/C: 81.5%
[25]
  viability, T/C: 70.6%
[26]
  viability, T/C: 79.5%
[27]
  viability, T/C: 77.1%
[28]
  viability, T/C: 83.9%
[29]
  viability, T/C: 63.6%
[30]
  viability, T/C: 65.4%
[31]
  viability, T/C: 70.3%
[32]
  viability, T/C: 56.6%
[33]
  viability, T/C: 68.5%
[34]
  viability, T/C: 74%
[35]
  viability, T/C: 39.6%
[36]
  viability, T/C: 66.4%

## Cn1nccc1Nc1nccc(-c2ccn(C(CO)c3ccc(Cl)c(F)c3)c(=O)c2)n1 (stereo not drawn) + CC(Nc1ccc2c(c1)OCCn1cc(N3C(=O)OCC3C(F)F)nc1-2)C(N)=O
Second compound 0.00316 µM
  IC50: > 10 µM
Second compound 0.01 µM
  IC50: > 10 µM
Second compound 0.0316 µM
  IC50: > 10 µM
Second compound 0.1 µM
  IC50: > 10 µM
Second compound 0.316 µM
  IC50: > 10 µM
Second compound 1 µM
  IC50: > 10 µM
[1]
  viability, T/C: 92.2%
[2]
  viability, T/C: 114%
[3]
  viability, T/C: 88.5%
[4]
  viability, T/C: 102%
[5]
  viability, T/C: 90.7%
[6]
  viability, T/C: 79.9%
[7]
  viability, T/C: 124%
[8]
  viability, T/C: 109%
[9]
  viability, T/C: 101%
[10]
  viability, T/C: 89.1%
[11]
  viability, T/C: 91.9%
[12]
  viability, T/C: 74.8%
[13]
  viability, T/C: 118%
[14]
  viability, T/C: 102%
[15]
  viability, T/C: 92.6%
[16]
  viability, T/C: 80%
[17]
  viability, T/C: 83.6%
[18]
  viability, T/C: 77.6%
[19]
  viability, T/C: 113%
[20]
  viability, T/C: 90.6%
[21]
  viability, T/C: 124%
[22]
  viability, T/C: 111%
[23]
  viability, T/C: 101%
[24]
  viability, T/C: 73.9%
[25]
  viability, T/C: 74.3%
[26]
  viability, T/C: 105%
[27]
  viability, T/C: 86.5%
[28]
  viability, T/C: 83%
[29]
  viability, T/C: 85%
[30]
  viability, T/C: 81.7%
[31]
  viability, T/C: 79.2%
[32]
  viability, T/C: 72.4%
[33]
  viability, T/C: 84.3%
[34]
  viability, T/C: 89.1%
[35]
  viability, T/C: 75.5%
[36]
  viability, T/C: 83.5%
